ChEMBL document CHEMBL1201862, “PubChem BioAssay data set” (2004)
Calls of active or inactive are those of the source.

How the values were obtained:
[1] = viability of PTEN-deleted HCT116 cells – cell-based, HCT116 PTEN knockout, dose response (AID 1047); format: functional;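 further: HCT116 colon tumor cells with PTEN knocked out; cells exposed to compound for 60 hours before readout; potency for loss of cell viability measured by luminescence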
Vero = assay: mammalian cell viability reduction – secondary assay, cytotoxicity control for West Nile virus antiviral project, dose response (AID 1650); format: functional; details: Chlorocebus sabaeus
[2] = viability of HCT116 lacking mutant beta-catenin – cell-based, human colon tumor, dose response (AID 1045); format: functional;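 further: HCT116 colon tumor cells with beta catenin knocked out; cells exposed to compound for 60 hours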
[3] = molecular target: T1, Lytic switch protein BZLF1 (Epstein-Barr virus (strain B95-8) (HHV-4) (Human herpesvirus 4), UniProt P03206); assay: inhibition of BZLF1 ZTA DNA binding – biochemical, fluorescence polarization, Epstein-Barr virus, 1536-well, counter-screen for EBNA-1 inhibitor project, dose response (AID 2377); set-up: species or system human gammaherpesvirus 4;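 further: fluorescence polarization of Cy5-labelled ZRE DNA probe bound by purified Zta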
T1 sequence (P03206 whole entry): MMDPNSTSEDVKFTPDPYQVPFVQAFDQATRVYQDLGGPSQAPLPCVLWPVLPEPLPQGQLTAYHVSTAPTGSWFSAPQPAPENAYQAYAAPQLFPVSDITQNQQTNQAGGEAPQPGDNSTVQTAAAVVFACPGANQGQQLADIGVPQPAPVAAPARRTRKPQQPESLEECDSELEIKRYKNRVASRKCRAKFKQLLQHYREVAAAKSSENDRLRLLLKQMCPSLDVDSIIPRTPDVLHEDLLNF

[4] = molecular target: T2, Epstein-Barr nuclear antigen 1 (Epstein-Barr virus (strain B95-8) (HHV-4) (Human herpesvirus 4), UniProt P03211); assay: inhibition of EBV nuclear antigen 1 DNA binding – biochemical, fluorescence polarization, 1536-well, dose response (AID 2381); set-up: species or system human gammaherpesvirus 4;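 further: fluorescence polarization of a Cy5 DNA probe bound by EBNA-1 protein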
T2 sequence (P03211 whole entry): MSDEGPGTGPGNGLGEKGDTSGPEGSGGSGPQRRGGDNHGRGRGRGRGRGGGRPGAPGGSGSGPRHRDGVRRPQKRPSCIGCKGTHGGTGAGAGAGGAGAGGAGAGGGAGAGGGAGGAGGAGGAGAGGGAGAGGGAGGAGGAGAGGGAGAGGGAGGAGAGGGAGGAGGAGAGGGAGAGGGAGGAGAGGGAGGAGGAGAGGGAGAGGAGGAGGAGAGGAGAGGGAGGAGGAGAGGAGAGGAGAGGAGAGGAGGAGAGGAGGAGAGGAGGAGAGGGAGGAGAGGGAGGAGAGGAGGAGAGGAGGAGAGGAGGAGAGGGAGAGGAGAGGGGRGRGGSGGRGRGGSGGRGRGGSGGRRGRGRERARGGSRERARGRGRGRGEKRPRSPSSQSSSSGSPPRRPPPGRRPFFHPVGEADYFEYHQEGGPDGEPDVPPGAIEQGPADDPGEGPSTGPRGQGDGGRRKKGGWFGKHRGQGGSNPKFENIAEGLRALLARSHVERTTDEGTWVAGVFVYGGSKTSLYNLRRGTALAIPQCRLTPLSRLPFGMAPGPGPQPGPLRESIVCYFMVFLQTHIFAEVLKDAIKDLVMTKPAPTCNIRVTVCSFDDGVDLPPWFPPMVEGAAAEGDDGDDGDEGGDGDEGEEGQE

[5] = molecular target: Eukaryotic translation initiation factor 4H (Homo sapiens, UniProt Q15056); assay: eIF4H binding inhibition – biochemical, uHTS, fluorescence polarization, translation initiation inhibitor project, primary screen (AID 2012)
[6] = molecular target: Polyadenylate-binding protein 1 (Homo sapiens, UniProt P11940); assay: blockers of PABP interaction with poly(A) – biochemical, fluorescence polarization, […] (AID 2014)
[7] = molecular target: Glyceraldehyde-3-phosphate dehydrogenase (Homo sapiens, UniProt P04406)
[8] = molecular target: T3, Dual specificity protein phosphatase 6 (Rattus norvegicus, UniProt Q64346); format: functional
T3 sequence (Q64346 whole entry): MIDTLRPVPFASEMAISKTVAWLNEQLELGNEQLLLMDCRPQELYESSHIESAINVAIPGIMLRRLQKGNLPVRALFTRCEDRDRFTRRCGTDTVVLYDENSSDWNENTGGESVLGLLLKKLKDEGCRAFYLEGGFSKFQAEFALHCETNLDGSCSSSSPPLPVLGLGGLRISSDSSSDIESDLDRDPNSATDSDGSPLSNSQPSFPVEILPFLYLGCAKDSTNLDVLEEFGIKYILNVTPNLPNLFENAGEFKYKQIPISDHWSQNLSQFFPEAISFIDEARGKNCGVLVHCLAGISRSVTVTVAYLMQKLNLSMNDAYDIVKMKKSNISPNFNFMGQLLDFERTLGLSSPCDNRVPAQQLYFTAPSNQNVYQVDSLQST

[9] = molecular target: T3, Dual specificity protein phosphatase 6
[10] = molecular target: T4, Tyrosine-protein phosphatase non-receptor type 7 (Homo sapiens, UniProt P35236); format: functional
T4 sequence (P35236 whole entry): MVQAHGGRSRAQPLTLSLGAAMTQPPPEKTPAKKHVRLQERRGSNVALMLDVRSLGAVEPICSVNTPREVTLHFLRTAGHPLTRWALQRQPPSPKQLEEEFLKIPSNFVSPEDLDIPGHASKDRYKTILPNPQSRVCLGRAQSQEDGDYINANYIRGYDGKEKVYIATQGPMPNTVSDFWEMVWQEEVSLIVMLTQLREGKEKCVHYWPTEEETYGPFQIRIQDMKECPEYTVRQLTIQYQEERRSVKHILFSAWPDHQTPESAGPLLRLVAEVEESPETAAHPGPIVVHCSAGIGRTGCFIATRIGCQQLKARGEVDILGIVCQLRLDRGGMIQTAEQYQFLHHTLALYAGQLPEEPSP

HT-1080 = assay: HT1080 cell viability loss – fluorescence readout (AID 620); format: functional, cell-based; details: Homo sapiens
[11] = molecular target: Luciferin 4-monooxygenase (Photinus pyralis, UniProt P08659); assay: Counter Screen for Luciferase-based Assay Positives. [Related pubchem assays: 620, 618, 411 ]
[12] = molecular target: T5, Microphthalmia-associated transcription factor (Homo sapiens, UniProt O75030); assay: reducers of TRPM1 reporter luminescence, concentration series – cell-based, SK-MEL-5, cherry-picked, set 3, MITF inhibitor project, dose response (AID 493073); format: functional;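 further: SK-MEL-5 melanoma cells with luciferase driven by the MITF target TRPM1 promoter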
T5 sequence (O75030 whole entry): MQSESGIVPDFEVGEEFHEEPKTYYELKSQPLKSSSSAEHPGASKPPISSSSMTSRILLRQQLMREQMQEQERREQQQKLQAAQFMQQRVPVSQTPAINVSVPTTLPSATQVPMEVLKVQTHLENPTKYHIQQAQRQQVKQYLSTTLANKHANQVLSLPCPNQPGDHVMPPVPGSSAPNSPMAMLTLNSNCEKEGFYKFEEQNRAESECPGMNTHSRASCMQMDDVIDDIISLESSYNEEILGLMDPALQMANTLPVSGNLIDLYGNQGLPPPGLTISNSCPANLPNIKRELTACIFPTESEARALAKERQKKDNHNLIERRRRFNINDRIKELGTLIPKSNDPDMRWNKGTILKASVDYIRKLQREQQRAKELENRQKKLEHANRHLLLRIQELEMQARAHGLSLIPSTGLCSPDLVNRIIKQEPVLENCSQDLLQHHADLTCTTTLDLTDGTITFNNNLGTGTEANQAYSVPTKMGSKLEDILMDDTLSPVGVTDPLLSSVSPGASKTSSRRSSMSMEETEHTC

Nonstructural protein 1 = Nonstructural protein 1 (Influenza A virus, UniProt Q194T2); format: functional, Influenza A virus (A/California/07/2009(H1N1))
Sequence of Nonstructural protein 1 (Q194T2 whole entry): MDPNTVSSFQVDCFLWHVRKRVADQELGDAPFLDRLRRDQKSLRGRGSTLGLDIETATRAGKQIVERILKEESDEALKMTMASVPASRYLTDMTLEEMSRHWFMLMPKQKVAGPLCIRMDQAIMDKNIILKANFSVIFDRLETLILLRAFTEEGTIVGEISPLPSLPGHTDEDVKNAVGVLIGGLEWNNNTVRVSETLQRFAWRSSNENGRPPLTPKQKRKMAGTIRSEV

Sequence of Polyadenylate-binding protein 1 (P11940 whole entry): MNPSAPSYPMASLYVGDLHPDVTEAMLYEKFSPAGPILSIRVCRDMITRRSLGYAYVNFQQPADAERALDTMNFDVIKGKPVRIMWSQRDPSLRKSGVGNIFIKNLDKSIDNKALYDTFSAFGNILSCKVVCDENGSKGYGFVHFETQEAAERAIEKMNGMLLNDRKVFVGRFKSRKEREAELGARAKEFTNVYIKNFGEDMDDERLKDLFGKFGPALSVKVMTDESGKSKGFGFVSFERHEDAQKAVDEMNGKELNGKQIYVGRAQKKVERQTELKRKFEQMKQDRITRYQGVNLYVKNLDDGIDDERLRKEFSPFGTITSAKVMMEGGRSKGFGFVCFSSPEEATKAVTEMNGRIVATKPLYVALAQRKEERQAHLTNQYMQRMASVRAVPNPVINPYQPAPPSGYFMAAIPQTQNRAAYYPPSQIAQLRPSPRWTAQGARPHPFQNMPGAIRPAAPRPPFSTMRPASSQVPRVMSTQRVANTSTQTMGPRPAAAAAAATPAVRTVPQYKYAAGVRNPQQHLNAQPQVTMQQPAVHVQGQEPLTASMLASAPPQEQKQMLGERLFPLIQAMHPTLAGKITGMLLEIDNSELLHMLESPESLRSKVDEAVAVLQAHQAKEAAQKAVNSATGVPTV
Sequence of Glyceraldehyde-3-phosphate dehydrogenase (P04406 whole entry): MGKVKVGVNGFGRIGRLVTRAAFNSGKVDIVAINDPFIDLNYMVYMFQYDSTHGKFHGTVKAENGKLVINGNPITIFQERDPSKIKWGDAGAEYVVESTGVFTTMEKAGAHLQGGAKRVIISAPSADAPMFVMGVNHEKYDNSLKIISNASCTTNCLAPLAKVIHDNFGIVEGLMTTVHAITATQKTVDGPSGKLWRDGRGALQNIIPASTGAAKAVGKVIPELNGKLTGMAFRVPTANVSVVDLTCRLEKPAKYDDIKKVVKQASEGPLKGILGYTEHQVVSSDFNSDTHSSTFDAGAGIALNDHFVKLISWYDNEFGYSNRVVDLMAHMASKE
Sequence of Luciferin 4-monooxygenase (P08659 whole entry): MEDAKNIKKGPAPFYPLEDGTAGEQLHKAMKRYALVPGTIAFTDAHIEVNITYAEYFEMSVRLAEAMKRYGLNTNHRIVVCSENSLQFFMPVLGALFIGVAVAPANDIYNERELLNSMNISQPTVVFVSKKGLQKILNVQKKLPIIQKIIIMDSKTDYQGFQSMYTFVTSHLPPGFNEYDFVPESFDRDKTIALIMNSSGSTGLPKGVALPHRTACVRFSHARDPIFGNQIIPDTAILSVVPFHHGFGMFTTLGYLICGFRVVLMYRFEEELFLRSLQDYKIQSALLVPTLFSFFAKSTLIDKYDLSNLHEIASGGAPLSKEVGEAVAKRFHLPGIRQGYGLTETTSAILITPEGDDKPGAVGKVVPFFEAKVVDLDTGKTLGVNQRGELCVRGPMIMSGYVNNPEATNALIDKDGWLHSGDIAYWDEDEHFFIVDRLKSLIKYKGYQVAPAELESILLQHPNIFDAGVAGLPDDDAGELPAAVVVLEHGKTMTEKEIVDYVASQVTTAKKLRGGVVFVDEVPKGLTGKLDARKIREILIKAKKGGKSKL

SMILES: CCCCn1c(=N)n(CC(O)COc2cccc(C)c2)c2ccccc21 (configuration not stated)
- EC50 [1]: 5.56 µM (active)
- CC50 (Vero): 40.2 µM (active)
- EC50 [2]: 5.24 µM (active)

SMILES: O=C(CNC(=O)c1ccc(-c2ccccc2)cc1)OCc1c(F)cccc1Cl
- IC50 [3]: > 111 µM (not active)
- IC50 [4]: 11.7 µM (not active)

SMILES: O=C(CCS(=O)(=O)c1ccc(Br)cc1)N1CCN(c2ccc(F)cc2)CC1
- IC50 [5]: 24.2 µM (active)
- IC50 [6]: > 100 µM (inactive)

SMILES: O=c1[nH]c(CN2CCN(S(=O)(=O)c3ccc4ccccc4c3)CC2)nc2ccccc12
- IC50 [3]: > 111 µM (not active)
- IC50 [4]: 5.56 µM (active)

SMILES: Cc1cc(O)c2c(c1)C1C=CCC1C(C(=O)O)N2 (configuration not stated)
- IC50 [7]: > 100 µM (not active)
- IC50 [8]: > 100 µM (inactive)
- IC50 [9]: > 100 µM (inactive)
- IC50 [10]: 2.41 µM (active)

SMILES: CN(C)c1ccc(NC(=S)c2ccccn2)cc1
- EC50 (HT-1080): > 50 µM (not active)
- EC50 [1]: 92.2 µM (active)
- EC50 [11]: 0.52 µM (active)
- EC50 [2]: 136 µM (active)
- AC50 [12]: 2.84 µM (active)
- IC50 (Nonstructural protein 1): 28.3 µM (active)

SMILES: CN(CC(=O)NC(=O)NCc1ccco1)CC(=O)Nc1ccccc1Cl
- IC50 [5]: 20.5 µM (active)
- IC50 [6]: 60.8 µM (active)

SMILES: COc1ccc(-n2ncc3c(NC(C)C)ncnc32)cc1
- EC50 (HT-1080): > 50 µM (not active)
- EC50 [11]: < 0.2 µM (active)

SMILES: O=C(O)C1Nc2c(cccc2S(=O)(=O)c2ccccc2)C2C=CCC12 (configuration not stated)
- IC50 [7]: 56.4 µM (active)
- IC50 [8]: 58.7 µM (active)
- IC50 [9]: 52.2 µM (active)
- IC50 [10]: 11 µM (active)
